# Data taken from patent US4442044A, “Process for preparing monoesters and diesters of N-alkyl substituted amino methyl phosphonic acid” (priority 1983, dated 1984).
# Legend:
# Format in all cases: in vivo
# Yellow Nutsedge [1] = assay: post-emergent herbicidal activity, greenhouse; conditions: Table I, 4 WAT
# Method in brief: (§1)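 Seeds or propagules sown in compacted top soil, grown 2–3 weeks in greenhouse, then sprayed with compound solution/suspension containing ~0.4% emulsifier at tabulated rates. Injury scored visually versus untreated controls at ~2 and 4 weeks after treatment, expressed as a herbicidal activity index.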
# Wild Buckwheat = assay: post-emergent herbicidal activity, greenhouse; conditions: Table II
# Method in brief: as §1
# Wheat = assay: post-emergent herbicidal activity, greenhouse; conditions: Table II
# Method in brief: as §1
# Rice = assay: post-emergent herbicidal activity, greenhouse; conditions: Table II
# Method in brief: as §1
# Soybean = assay: post-emergent herbicidal activity, greenhouse; conditions: Table II
# Method in brief: as §1
# Smartweed [2] = assay: post-emergent herbicidal activity, greenhouse
# Method in brief: as §1
# Velvetleaf [3] = assay: post-emergent herbicidal activity, greenhouse
# Method in brief: as §1
# Sorghum = assay: post-emergent herbicidal activity, greenhouse; conditions: Table II
# Method in brief: as §1
# Sugar Beet = assay: post-emergent herbicidal activity, greenhouse; conditions: Table II
# Method in brief: as §1
# Lambsquarters [4] = assay: post-emergent herbicidal activity, greenhouse
# Method in brief: as §1
# Quackgrass [5] = assay: post-emergent herbicidal activity, greenhouse; conditions: Table I, 4 WAT
# Method in brief: as §1
# Johnsongrass [6] = assay: post-emergent herbicidal activity, greenhouse; conditions: Table I, 4 WAT
# Method in brief: as §1
# Panicum Spp = assay: post-emergent herbicidal activity, greenhouse; conditions: Table II
# Method in brief: as §1
# Morningglory [7] = assay: post-emergent herbicidal activity, greenhouse
# Method in brief: as §1
# Downy Brome [8] = assay: post-emergent herbicidal activity, greenhouse
# Method in brief: as §1
# Barnyardgrass [9] = assay: post-emergent herbicidal activity, greenhouse
# Method in brief: as §1
# Cocklebur [10] = assay: post-emergent herbicidal activity, greenhouse
# Method in brief: as §1
# Canada Thistle [11] = assay: post-emergent herbicidal activity, greenhouse; conditions: Table I, 4 WAT
# Method in brief: as §1
# Hemp Sesbania = assay: post-emergent herbicidal activity, greenhouse; conditions: Table II
# Method in brief: as §1
# Yellow Nutsedge [12] = assay: pre-emergent herbicidal activity, soil incorporation; conditions: Table III, 2 WAT, 11.2 kg/h
# Description: (§2) A good grade of top soil is placed in aluminum pans and compacted to a depth of 0.95 to 1.27 cm. from the top of each pan. A predetermined number of seeds or vegetative propagules of each of several plant species are placed on top of the soil in each pan and then pressed down. Herbicidal compositions prepared as in the previous example are applied by admixture with or incorporation in the top layer of soil.
# (§3) In this method, the soil required to cover the seeds and propagules is weighed and admixed with a herbicidal composition containing a known amount of the active ingredient (compound of this invention). The pans are then filled with the admixture and leveled. Watering is carried out by permitting the soil in the pans to absorb moisture through apertures in the pan bottoms. The seed and propagule containing pans are placed on a wet sand bench and maintained for approximately two weeks under ordinary conditions of sunlight and watering. At the end of this period, the number of emerged plants of each species is noted and compared to an untreated control.
# (§4) The pre-emergent herbicidal activity index used below is based upon average percent control of each species as follows: […]
# Smartweed [13] = assay: as above; conditions: Table III, 2 WAT, 11.2 kg/h
# Description: as §2, §3, §4
# Velvetleaf [14] = assay: as above; conditions: Table III, 2 WAT, 11.2 kg/h
# Description: as §2, §3, §4
# Lambsquarters [15] = assay: as above; conditions: Table III, 2 WAT, 11.2 kg/h
# Description: as §2, §3, §4
# Quackgrass [16] = assay: as above; conditions: Table III, 2 WAT, 11.2 kg/h
# Description: as §2, §3, §4
# Johnsongrass [17] = assay: as above; conditions: Table III, 2 WAT, 11.2 kg/h
# Description: as §2, §3, §4
# Morningglory [18] = assay: as above; conditions: Table III, 2 WAT, 11.2 kg/h
# Description: as §2, §3, §4
# Downy Brome [19] = assay: as above; conditions: Table III, 2 WAT, 11.2 kg/h
# Description: as §2, §3, §4
# Barnyardgrass [20] = assay: as above; conditions: Table III, 2 WAT, 11.2 kg/h
# Description: as §2, §3, §4
# Cocklebur [21] = assay: as above; conditions: Table III, 2 WAT, 11.2 kg/h
# Description: as §2, §3, §4
# Canada Thistle [22] = assay: as above; conditions: Table III, 2 WAT, 11.2 kg/h
# Description: as §2, §3, §4
# [23] = 2** WAT, 0.056 kg/h, applied in 100 GPA THF
# [24] = Table II, 2** WAT, 0.056 kg/h, applied in 100 GPA THF
compound,measurement,setting,value
"CCOC(=O)CNCP(=O)(O)OC(C#N)CC (stereo not drawn) [Example 8, glycine, N-[[(1-cyanopropoxy)hydroxyphosphinyl]methyl],ethyl ester]",post-emergent herbicidal activity index,Yellow Nutsedge [1]; 5.6 kg/h,3 (75-99% control)
same,post-emergent herbicidal activity index,Yellow Nutsedge [1]; 11.2 kg/h,4 (100% control)
same,post-emergent herbicidal activity index,Wild Buckwheat; [23],0 (0-24% control)
same,post-emergent herbicidal activity index,"Wild Buckwheat; 4 WAT, 1.12 kg/h",3 (75-99% control)
same,post-emergent herbicidal activity index,"Wild Buckwheat; 4 WAT, 5.6 kg/h",4 (100% control)
same,post-emergent herbicidal activity index,Wheat; [23],1 (25-49% control)
same,post-emergent herbicidal activity index,"Wheat; 4 WAT, 1.12 kg/h",4 (100% control)
same,post-emergent herbicidal activity index,"Wheat; 4 WAT, 5.6 kg/h",4 (100% control)
same,post-emergent herbicidal activity index,Rice; [23],0 (0-24% control)
same,post-emergent herbicidal activity index,"Rice; 4 WAT, 1.12 kg/h",3 (75-99% control)
same,post-emergent herbicidal activity index,"Rice; 4 WAT, 5.6 kg/h",4 (100% control)
same,post-emergent herbicidal activity index,Soybean; [23],0 (0-24% control)
same,post-emergent herbicidal activity index,"Soybean; 4 WAT, 1.12 kg/h",3 (75-99% control)
same,post-emergent herbicidal activity index,"Soybean; 4 WAT, 5.6 kg/h",4 (100% control)
same,post-emergent herbicidal activity index,"Smartweed [2]; Table I, 4 WAT, 5.6 kg/h",4 (100% control)
same,post-emergent herbicidal activity index,"Smartweed [2]; Table I, 4 WAT, 11.2 kg/h",4 (100% control)
same,post-emergent herbicidal activity index,Smartweed [2]; [24],0 (0-24% control)
same,post-emergent herbicidal activity index,"Smartweed [2]; Table II, 4 WAT, 1.12 kg/h",3 (75-99% control)
same,post-emergent herbicidal activity index,"Smartweed [2]; Table II, 4 WAT, 5.6 kg/h",4 (100% control)
same,post-emergent herbicidal activity index,"Velvetleaf [3]; Table I, 4 WAT, 5.6 kg/h",3 (75-99% control)
same,post-emergent herbicidal activity index,"Velvetleaf [3]; Table I, 4 WAT, 11.2 kg/h",4 (100% control)
same,post-emergent herbicidal activity index,Velvetleaf [3]; [24],0 (0-24% control)
same,post-emergent herbicidal activity index,"Velvetleaf [3]; Table II, 4 WAT, 1.12 kg/h",3 (75-99% control)
same,post-emergent herbicidal activity index,"Velvetleaf [3]; Table II, 4 WAT, 5.6 kg/h",3 (75-99% control)
same,post-emergent herbicidal activity index,Sorghum; [23],0 (0-24% control)
same,post-emergent herbicidal activity index,"Sorghum; 4 WAT, 1.12 kg/h",4 (100% control)
same,post-emergent herbicidal activity index,"Sorghum; 4 WAT, 5.6 kg/h",4 (100% control)
same,post-emergent herbicidal activity index,Sugar Beet; [23],0 (0-24% control)
same,post-emergent herbicidal activity index,"Sugar Beet; 4 WAT, 1.12 kg/h",4 (100% control)
same,post-emergent herbicidal activity index,"Sugar Beet; 4 WAT, 5.6 kg/h",4 (100% control)
same,post-emergent herbicidal activity index,"Lambsquarters [4]; Table I, 4 WAT, 5.6 kg/h",4 (100% control)
same,post-emergent herbicidal activity index,"Lambsquarters [4]; Table I, 4 WAT, 11.2 kg/h",4 (100% control)
same,post-emergent herbicidal activity index,Lambsquarters [4]; [24],0 (0-24% control)
same,post-emergent herbicidal activity index,"Lambsquarters [4]; Table II, 4 WAT, 1.12 kg/h",3 (75-99% control)
same,post-emergent herbicidal activity index,"Lambsquarters [4]; Table II, 4 WAT, 5.6 kg/h",4 (100% control)
same,post-emergent herbicidal activity index,Quackgrass [5]; 5.6 kg/h,4 (100% control)
same,post-emergent herbicidal activity index,Quackgrass [5]; 11.2 kg/h,4 (100% control)
same,post-emergent herbicidal activity index,Johnsongrass [6]; 5.6 kg/h,3 (75-99% control)
same,post-emergent herbicidal activity index,Johnsongrass [6]; 11.2 kg/h,4 (100% control)
same,post-emergent herbicidal activity index,Panicum Spp; [23],0 (0-24% control)
same,post-emergent herbicidal activity index,"Panicum Spp; 4 WAT, 1.12 kg/h",4 (100% control)
same,post-emergent herbicidal activity index,"Panicum Spp; 4 WAT, 5.6 kg/h",4 (100% control)
same,post-emergent herbicidal activity index,"Morningglory [7]; Table I, 4 WAT, 5.6 kg/h",2 (50-74% control)
same,post-emergent herbicidal activity index,"Morningglory [7]; Table I, 4 WAT, 11.2 kg/h",3 (75-99% control)
same,post-emergent herbicidal activity index,Morningglory [7]; [24],0 (0-24% control)
same,post-emergent herbicidal activity index,"Morningglory [7]; Table II, 4 WAT, 1.12 kg/h",3 (75-99% control)
same,post-emergent herbicidal activity index,"Morningglory [7]; Table II, 4 WAT, 5.6 kg/h",3 (75-99% control)
same,post-emergent herbicidal activity index,"Downy Brome [8]; Table I, 4 WAT, 5.6 kg/h",3 (75-99% control)
same,post-emergent herbicidal activity index,"Downy Brome [8]; Table I, 4 WAT, 11.2 kg/h",4 (100% control)
same,post-emergent herbicidal activity index,Downy Brome [8]; [24],0 (0-24% control)
same,post-emergent herbicidal activity index,"Downy Brome [8]; Table II, 4 WAT, 1.12 kg/h",3 (75-99% control)
same,post-emergent herbicidal activity index,"Downy Brome [8]; Table II, 4 WAT, 5.6 kg/h",3 (75-99% control)
same,post-emergent herbicidal activity index,"Barnyardgrass [9]; Table I, 4 WAT, 5.6 kg/h",3 (75-99% control)
same,post-emergent herbicidal activity index,"Barnyardgrass [9]; Table I, 4 WAT, 11.2 kg/h",4 (100% control)
same,post-emergent herbicidal activity index,Barnyardgrass [9]; [24],1 (25-49% control)
same,post-emergent herbicidal activity index,"Barnyardgrass [9]; Table II, 4 WAT, 1.12 kg/h",4 (100% control)
same,post-emergent herbicidal activity index,"Barnyardgrass [9]; Table II, 4 WAT, 5.6 kg/h",4 (100% control)
same,post-emergent herbicidal activity index,"Cocklebur [10]; Table I, 4 WAT, 5.6 kg/h",3 (75-99% control)
same,post-emergent herbicidal activity index,"Cocklebur [10]; Table I, 4 WAT, 11.2 kg/h",4 (100% control)
same,post-emergent herbicidal activity index,Cocklebur [10]; [24],0 (0-24% control)
same,post-emergent herbicidal activity index,"Cocklebur [10]; Table II, 4 WAT, 1.12 kg/h",3 (75-99% control)
same,post-emergent herbicidal activity index,"Cocklebur [10]; Table II, 4 WAT, 5.6 kg/h",4 (100% control)
same,post-emergent herbicidal activity index,Canada Thistle [11]; 5.6 kg/h,4 (100% control)
same,post-emergent herbicidal activity index,Canada Thistle [11]; 11.2 kg/h,4 (100% control)
same,post-emergent herbicidal activity index,Hemp Sesbania; [23],0 (0-24% control)
same,post-emergent herbicidal activity index,"Hemp Sesbania; 4 WAT, 1.12 kg/h",2 (50-74% control)
same,post-emergent herbicidal activity index,"Hemp Sesbania; 4 WAT, 5.6 kg/h",4 (100% control)
same,pre-emergent herbicidal activity index,Yellow Nutsedge [12],1 (25-49% control)
same,pre-emergent herbicidal activity index,Smartweed [13],0 (1-24% control)
same,pre-emergent herbicidal activity index,Velvetleaf [14],0 (1-24% control)
same,pre-emergent herbicidal activity index,Lambsquarters [15],0 (1-24% control)
same,pre-emergent herbicidal activity index,Quackgrass [16],2 (50-74% control)
same,pre-emergent herbicidal activity index,Johnsongrass [17],2 (50-74% control)
same,pre-emergent herbicidal activity index,Morningglory [18],0 (1-24% control)
same,pre-emergent herbicidal activity index,Downy Brome [19],0 (1-24% control)
same,pre-emergent herbicidal activity index,Barnyardgrass [20],0 (1-24% control)
same,pre-emergent herbicidal activity index,Cocklebur [21],0 (1-24% control)
same,pre-emergent herbicidal activity index,Canada Thistle [22],3 (75-100% control)
